These results are taken from patent US20040176320A1, “Use of at least one glycoinhibitor substance” (priority 2001, published 2004).

Entries after “also recorded” stand apart in the source; their conditions may differ.

In test [1] the test system is β-galactosidase from jack beans. Description: Inhibition of β-galactosidase cleavage of Galβ4GlcNAcβ3Galβ4Glc. It counts as biochemical. The following applies: 55 mM inhibitor, 100 mU enzyme, 50 mM sodium citrate pH 4.0, 37° C., 8 h; no unreacted substrate without inhibitor. An excerpt: Inhibition of β-galactosidase enzyme by D-galactono-1,4-lactone (Sigma, St Louis, USA). β-galactosidase from jack beans (EC 3.2.1.23, Sigma, St Louis, USA) is used to cleave terminal galactose from model oligosaccharide Galβ4GlcNAcβ3Galβ4Glc (Sigma, St Louis, USA). It is noted that the transition state analog galactosidase inhibitor is active against many galactosidases (Huber and Brockbank, 1987, actual active form is probably D-galactono-1,5-lactone) and that the jack bean β-galactosidase cleaves similarily other type 2 lactosamines such as e.g. Galβ4GlcNAcβ3Galβ4GlcNAcβ3Galβ4Glc, specific conditions are needed to cleave Galβ3GlcNAc-sequences or glycospingolipids. In Reaction 1, 25 nmol of Galβ4GlcNAcβ3Galβ4Glc is incubated with 100 mU of β-galactosidase from jack beans in-45 μl of 50 mM sodium citrate pH 4.0, at 37° C., for 8 h. Reaction 2 has the same composition, but contains additionally 55 mM D-galactono-1,4-lactone and it is incubated under the same condition for 8 h. The major products from Reaction 1 are Gal and GlcNAcβ3Galβ4Glc, while unreacted substrate is generally not observable by HPLC and mass spectrometric analysis, while Reaction 2 contains besides these typically more than 50% of uncleaved Galβ4GlcNAcβ3Galβ4Glc.

Test [2] concerns Helicobacter pylori. The test is described as follows: TLC bacterial overlay assay: binding of 35S-labeled Helicobacter pylori to glycosphingolipids. Particulars: for Helicobacter pylori binding activity (in words): TLC overlay; for binding frequency for Helicobacter pylori: strain 032, total number of plates about 100; for binding compared between Helicobacter pylori strains: strains 17875, 002 and 032.

The target in test [3] is T1, sialidase from Vibrio cholerae (Vibrio cholerae serotype O1, UniProt P0C6E9).
T1 construct: purchased Behringwerke, Marburg, Germany
T1 sequence (P0C6E9 25-781): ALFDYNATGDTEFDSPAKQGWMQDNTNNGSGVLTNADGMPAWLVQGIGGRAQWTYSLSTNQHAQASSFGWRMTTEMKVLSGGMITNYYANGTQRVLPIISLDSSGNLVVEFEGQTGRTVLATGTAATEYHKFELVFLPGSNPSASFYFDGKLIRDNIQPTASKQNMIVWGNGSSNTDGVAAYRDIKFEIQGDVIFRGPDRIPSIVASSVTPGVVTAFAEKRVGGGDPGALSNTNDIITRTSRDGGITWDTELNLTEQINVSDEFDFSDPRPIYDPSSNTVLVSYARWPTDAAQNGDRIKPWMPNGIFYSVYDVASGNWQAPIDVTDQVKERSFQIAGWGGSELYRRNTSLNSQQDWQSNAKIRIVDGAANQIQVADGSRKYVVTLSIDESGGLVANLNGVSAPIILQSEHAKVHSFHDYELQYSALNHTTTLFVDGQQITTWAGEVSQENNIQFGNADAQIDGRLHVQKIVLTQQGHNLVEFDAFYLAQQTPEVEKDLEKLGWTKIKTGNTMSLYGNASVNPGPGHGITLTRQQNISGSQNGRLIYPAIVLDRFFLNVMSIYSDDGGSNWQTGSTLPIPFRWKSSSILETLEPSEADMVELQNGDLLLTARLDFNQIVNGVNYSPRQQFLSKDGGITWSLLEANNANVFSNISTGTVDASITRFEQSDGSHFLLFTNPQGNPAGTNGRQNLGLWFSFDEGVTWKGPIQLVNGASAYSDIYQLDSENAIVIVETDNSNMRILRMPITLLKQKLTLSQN
The test is described as follows: Inhibition of sialidase cleavage of Neu5Acα3Galβ4Glc. The following applies: saturating concentrations. It counts as biochemical.

For test [4], the system named is Helicobacter pylori. The following applies: human gastrointestinal cell lines (Simon et al., 1999); cited from earlier work.
Test [5] relates to Helicobacter pylori. The following applies: rhesus monkey (Mysore et al., 2000); cited from earlier work.
Where [6] appears, read: dilution series, semi-quantitative TLC overlay.

Turning to `O=C1O[C@@H]([C@H](O)CO)[C@H](O)[C@H]1O` [D-galactono-1,4-lactone], in test [1], the “uncleaved Galβ4GlcNAcβ3Galβ4Glc” value is “more than 50%”.

As for `CCCCCCCCCCCCCCCCc1ccc(NC[C@H](O)[C@@H](O)[C@H](O[C@@H]2O[C@H](CO)[C@H](O)[C@H](O[C@@H]3O[C@H](CO)[C@@H](O[C@@H]4O[C@H](CO)[C@H](O)[C@H](O[C@@H]5O[C@H](CO)[C@@H](O)[C@H](O)[C@H]5NC(C)=O)[C@H]4O)[C@H](O)[C@H]3NC(C)=O)[C@H]2O)[C@H](O)CO)cc1` [GlcNAcβ3Galβ4GlcNAcβ3Galβ4Glc(red)-HDA], the “Helicobacter pylori binding activity (in words)” value with Helicobacter pylori [2] is reported as “observable binding activity”. Take `CC(=O)N[C@H]1[C@H]([C@H](O)[C@H](O)CO)OC(C(=O)O)=C[C@@H]1O` [Neu5Ac2en, 2,3-anhydro-2-deoxy-N-acetylneuraminic acid]: the “inhibition of the enzyme (in words)” value in test [3] is “very effectively inhibited”. On to `CC(=O)N[C@H]1[C@H]([C@H](O)[C@H](O)CO)O[C@@](O[C@H]2[C@@H](O)[C@@H](CO)O[C@@H](O[C@H]3[C@H](O)[C@@H](O)C(O)O[C@@H]3CO)[C@@H]2O)(C(=O)O)C[C@@H]1O` (stereo partly shown) [Sialyl-lactose], for which the “inhibition of Helicobacter pylori binding to cell lines” value with Helicobacter pylori [4] was “inhibits Helicobacter pylori binding”. The “efficacy in animal model of the infection” value with Helicobacter pylori [5] is “effective”. For “Fucα2Galβ4GlcNAcβ3Galβ4Glcβ1Cer [No. 18]”, the “Helicobacter pylori binding activity (in words)” value in the test with Helicobacter pylori [2] is recorded as “absence of binding”. Same read-out and setting: the same measure for “GalNAcα3(Fucα2)Galβ4GlcNAcβ3Galβ4Glcβ1Cer [No. 22]”: “non-binding”; for “GalNAcβ3Galα3Galβ4GlcNAcβ3Galβ4Glcβ1Cer [No. 25]”: “non-binding”; for “GalNAcβ3Galβ4GlcNAcβ3Galβ4Glcβ1Cer [No. 11]”: “binding was also found”. The same measure, in the same setting: with “Galα3(Fucα2)Galβ4GlcNAcβ3Galβ4Glcβ1Cer [No. 23]” the entry was “non-binding”; with “Galα3Galβ4GlcNAcβ3Galβ4Glcβ1Cer [No. 13]”, “binding-active”; with “Galα4Galβ4GlcNAcβ3Galβ4Glcβ1Cer [No. 15]”, “absence of binding”. Consider “Galβ4GlcNAcβ3Galβ4GlcNAcβ3Galβ4Glcβ1Cer [No. 21]”, for which, in the test with Helicobacter pylori [2], the “Helicobacter pylori binding activity (in words)” value is recorded as “displayed binding activity”, the “binding frequency for Helicobacter pylori” value is approximately 90% and the “binding compared between Helicobacter pylori strains” value is given as “similar”. Also, the “amount in which glycolipid bound Helicobacter pylori” value with Helicobacter pylori [2] (setting [6]) is given as ~0.2 nmoles of glycolipid/spot. As to Galβ4GlcNAcβ3Galβ4Glcβ1Cer [No. 5], in the test on Helicobacter pylori [2], the “Helicobacter pylori binding activity (in words)” value was “displayed binding activity” and the “binding compared between Helicobacter pylori strains” value is listed as “similar”. Further, the “amount in which glycolipid bound Helicobacter pylori” value in the test with Helicobacter pylori [2] (setting [6]) is reported as ~0.3 nmoles of glycolipid/spot. Take Galβ4GlcβCer [diglycosylceramide]: the “Helicobacter pylori binding activity (in words)” value in the test on Helicobacter pylori [2] is recorded as “displayed binding activity”. Take “GlcNAcβ3Galβ4GlcNAcβ3Galβ4Glcβ1Cer [No. 10]”: the “Helicobacter pylori binding activity (in words)” value with Helicobacter pylori [2] (listed as pentaglycosylceramide) was “strong activity; also recorded: displayed binding activity; also recorded: highly active”. Besides, the “amount giving a positive response on TLC plates” value in the test on Helicobacter pylori [2] (dilution series, semi-quantitative TLC overlay, mean value from 7 experiments) was found to be 0.039 nmol/spot. For the same compound, in the test with Helicobacter pylori [2], the “binding frequency for Helicobacter pylori” value was approximately 90% and the “binding compared between Helicobacter pylori strains” value was “similar”.

GlcNAcβ3Galβ4Glcβ1Cer [No. 1]: the “Helicobacter pylori binding activity (in words)” value in the test with Helicobacter pylori [2] was “inactive”. In the case of “NeuAcα3GalNAcβ3Galβ4GlcNAcβ3Galβ4Glcβ1Cer [No. 24]”, the “Helicobacter pylori binding activity (in words)” value in the test on Helicobacter pylori [2] is on record as “non-binding”. “NeuGcα3Galβ4GlcNAcβ3Galβ4GlcNAcβ3Galβ4Glcβ1Cer [No. 27]”: the “binding by Helicobacter pylori isolates” value in the test with Helicobacter pylori [2] (about 60 isolates tested) is “bound by most Helicobacter pylori isolates”.

For the compound “maltoheptaose(red)-HDA [maltoheptaose/red)-HDA, reference compound]”, the “Helicobacter pylori binding activity (in words)” value with Helicobacter pylori [2] was “totally inactive”.
